Assay results taken from patent publication US11896843B2, “Photodynamic therapy devices, systems and methods” (NATIONAL UNIVERSITY OF SINGAPORE, priority 2018, dated 2024).

What was measured:
[1] = system: C6 rat glioma cells; assay: Cell kill in C6 rat glioma by UV light triggered PDT; format: cell-based; settings: Ce6 PDT triggered by UV/violet light emitting devices, in vitro
[2] = system: MB49 cells; assay: Cell viability (MTS assay) of Ce6-incubated MB49 cells after irradiation; format: cell-based, murine; settings: for cell kill (MTS assay): 20 min irradiation, 1.3 mW
Experimental: (§1) Using Ce6-incubated murine bladder cancer cells, ROS production was further validated against red laser irradiation, the current clinical standard, in two configurations: (i) cells directly exposed to the radio-frequency/laser source, and (ii) cells placed under thick (3 cm) porcine tissue, simulating light delivery to deep tissue regions.
(§2) FIGS. 18a to 18d illustrate test configurations for investigating ROS production. FIG. 18a illustrates a test configuration in which laser light is directly incident on the MB49 cells and FIG. 18 illustrates a test configuration in which the laser light travels through 3 cm of tissue. The laser illumination was carried out with the following intensity 37.5 mW/cm^2, 4 J/cm^2. FIG. 18c illustrates a test configuration in which a wirelessly powered implantable device is powered without intervening tissue. For this configuration near-field (NF) wireless powering was used. FIG. 18d illustrates a test configuration in which a wirelessly powered implantable device is powered without though 3 cm of tissue. For this configuration mid-field (MF) wireless powering was used.
Change in cell viability (MTS assay) following 20 min of irradiation in the above light delivery configurations is shown. The light dosing rate was 1.3 mW throughout. Groups include untreated cells, cells exposed to Ce6 alone, cells exposed to light alone and cells incubated with Ce6 and exposed to light from a laser or the device with or without intervening tissue section.

[3] = system: ROS production; assay: ROS production in Ce6 solution around device implanted in adult pig model; settings: 5 μM Ce6 solution; device 5.1 cm deep on liver surface, wirelessly powered through tissue; vs control solution with no Ce6
Experimental: To illustrate that the implantable illumination devices could be powered through thick tissue at depths relevant to human scales, ROS production studies were conducted in an adult pig model.
FIGS. 16a to 16c show computed tomography (CT) reconstructions of the radio-frequency transmitter and device implanted an adult pig model.
The control (No Ce6) was a control solution with no Ce6 and the test solution was a solution containing 5 μM Ce6.

[4] = system: solid tumor from MB49 bladder cancer cells; assay: Cancer PDT in C57 BL/6 mice bearing MB49 tumors, wireless light delivery; format: in vivo
Experimental: Treatments were administered on Day 3 (T1) and Day 9 (T2) with a light dose of 1.3 mW over 30 min. Graphs show mean±s.d. (n=5 per group). The light dose was set to the same level (1.3 mW, 30 min) as used in the in vitro experiments. Devices were implanted in the interstitial space around a solid tumor grown to 4-6 mm diameter from MB49 bladder cancer cells subcutaneously injected into the hind region. After a recovery period, PDT was performed by intratumoral injection of Ce6 followed 4 hours later by wireless delivery of the light dose. […] Control groups were left untreated; received Ce6 injections only, received sham devices only, or given light doses using functional devices without Ce6 injection. […] Monitoring of tumor volume ended 13 days after first treatment, beyond which tumors in the majority of the mice from control groups either reached ethical size limits or were ulcerated. […] Tumor volumes cleared by PDT at the prescribed light dose are consistent with light transport calculations and measurements.

[5] = system: ROS production; assay: ROS production by Ce6 illuminated with wireless LED mesh device (405 nm or 660 nm); settings: UV/violet (405 nm) light versus red (660 nm) light
Description: Depending on the absorption spectrum of the photosensitizer used and the size of the tumor, the devices can be customized to emit a suitable light wavelength. The photosensitizer Ce6 (chlorin e6) has a strong absorption peak at 405 nm and a weaker one at 660 nm.
FIG. 33A is a graph showing production of reactive oxygen species (ROS) by Ce6 when illuminated using a wireless illumination device emitting red (660 nm) light. FIG. 33B is a graph showing production of reactive oxygen species (ROS) by Ce6 when illuminated using a wireless illumination device emitting UV/violet (405 nm) light.

[6] = system: solid tumor from MB49 bladder cancer cells; assay: Histology after a single round of PDT, wireless device versus direct laser illumination; format: in vivo, mice
Experimental: We compared the therapy to PDT by direct laser illumination, the current clinical standard, by histological examination of the tissue following a single round of treatment. […] The white lines labelled “T.B.” indicates a tissue boundary. Tumor-bearing mice were injected intratumorally with Ce6 and administered either the prior light dose using the wireless device or using a red laser (660 nm) collimated to a 5-mm diameter spot.

[7] = system: MB49 cells; assay: Cellular ROS production (Image-iT live Green ROS sensor fluorescence); format: cell-based, murine
Experimental: as §1, §2
FIGS. 21a to 21g show florescence images of treated cells and control cells. FIGS. 21a and 21b show cells treated following incubation with Ce6 and illuminated with respectively, the direct laser configuration and, the though tissue laser configuration. FIGS. 21c and 21d show cells treated following incubation with Ce6 and illuminated with respectively, the near field (direct) wireless configuration and, the though tissue (mid field) wireless configuration. FIGS. 21e to 21g show control scenarios. […] The results were obtained from a fluorogenic, cell-permeable ROS sensor (Image-iT live Green ROS).
In all cases, significant cell death resulted from oxidative stress.

[8] = system: MB49 cells; assay: Apoptosis index (TUNEL assay) in MB49 cells; format: cell-based, murine
Experimental: as §2
Cell death could be attributed to apoptosis, a widely accepted mechanism for PDT-mediated cytotoxicity. Apoptosis index (TUNEL assay) including positive and negative controls from the assay are shown.

[9] = system: ROS production; assay: ROS production in vitro under direct LED illumination of other photosensitizers; settings: compared with Ce6
Description: The system can be adapted for use with other photosensitizers.

[10] = intratumoral Ce6 + red laser (660 nm), 5-mm spot
[11] = intratumoral Ce6 + wireless device light dose

Chlorin e6 [Ce6]
cell death [1]: about 80%
change in cell viability (MTS assay) ([2]; Ce6 + laser illumination obstructed by thick (3 cm) tissue, P=0.178): did not result in a significant difference in cell viability
change in cell viability (MTS assay) ([2]; Ce6 + laser illumination, direct): effective at reducing cell viability
cell kill (MTS assay) ([2]; Ce6 + wireless light delivery through thick (3 cm) tissue (mid-field), P=0.0039): ~80%
cell kill (MTS assay) ([2]; Ce6 + wireless light delivery, direct (near-field), P=0.0027): ~80%
ROS production in Ce6 solution [3]: significant ROS production
body weight over the treatment period ([4]; across all groups of mice incl. Ce6 + wireless light): did not show appreciable weight loss
tumor volume as a function of time ([4]; intratumoral Ce6, wireless light dose 1.3 mW 30 min 4 hours later, two treatments, monitored to 13 days after first treatment, vs control groups): suppression, and in some cases complete regression, of tumors
apoptotic cells in resected tumors (TUNEL staining) ([4]; treatment group (Ce6 + wireless light) compared to control groups): significantly greater population of apoptotic cells
ROS yield [5]: ROS yield is higher
apoptosis in explanted tumor tissues (TUNEL staining) [6, 10]: comparable apoptosis
damage in tissues adjacent to the tumor (TUNEL staining) [6, 10]: did not show significant damage
apoptosis in explanted tumor tissues (TUNEL staining) [6, 11]: comparable apoptosis
damage in tissues adjacent to the tumor (TUNEL staining) [6, 11]: did not show significant damage
ROS-induced fluorescence signal ([7]; Ce6 + laser illumination, beam obstructed with thick tissue): insignificant ROS-induced fluorescence
ROS-induced fluorescence signal ([7]; Ce6 + laser illumination, direct irradiation): effective only under direct irradiation
ROS-induced fluorescence signal ([7]; Ce6 + wireless illumination, close proximity to radio-frequency source): increased signal
ROS-induced fluorescence signal ([7]; Ce6 + wireless illumination, through thick tissue): increased signal
ROS production ([7]; Ce6 exposure alone (no light)): did not result in significant ROS production
apoptosis index (TUNEL assay) ([8]; Ce6 + laser, direct): high apoptosis
apoptosis index (TUNEL assay) ([8]; Ce6 + laser, through 3 cm tissue): low and comparable to the untreated control scenario
apoptosis index (TUNEL assay) ([8]; Ce6 + wireless device, direct (near-field)): high apoptosis
apoptosis index (TUNEL assay) ([8]; Ce6 + wireless device, through 3 cm tissue (mid-field)): high apoptosis

[Zn+2].c1ccc2c(c1)-c1nc-2nc2[n-]c(nc3nc([n-]c4nc(n1)-c1ccccc1-4)-c1ccccc1-3)c1ccccc21 [zinc phthalocyanine]
levels of ROS in vitro (normalized fluorescence) [9]: comparable levels of ROS
